# According to paper PMC9271048, “Probing strigolactone perception mechanisms with rationally designed small-molecule agonists stimulating germination of root parasitic weeds” (Nature Communications, 2022):
# Biological target: T1, ShHTL7 (Striga hermonthica, UniProt A0A0M3PNA2)
# Assay: biochemical
# Type: binding
# Conditions: not given
# Experimental: We used a sensitive, high-throughput Surface plasmon resonance (SPR) method to examine the binding affinities of the 51 candidates to the recombinant ShHTL7 protein, which was immobilized on the CM5 sensor chip. rac-GR24 was used as a positive control.
# The interactions of small molecules with recombinant ShHTL7 were evaluated using the Biacore T200 system (GE Healthcare, USA) at 25 °C[47]. The purified ShHTL7 protein was immobilized on a CM5 sensor chip using the standard amine coupling procedure. […] PBS-P (10 mM phosphate buffer, 2.7 mM KCl, 137 mM NaCl, 0.05% Surfactant P20) containing 0.5% DMSO was used as the running buffer. For the screening experiments, candidates with different structures at 50 μM in the running buffer were injected individually at a flow rate of 30 μL min^−1. For binding affinity studies, compounds with different concentrations in running buffer were used. During the experiments, both the contact and dissociation times were set as 1 min. Data analysis was performed using the Biacore Evaluation Software (T200 Version 2.0). The affinity values (KD) were obtained by the kinetics analysis or the steady-state affinity method.
# T1 sequence (A0A0M3PNA2 entry or part of it): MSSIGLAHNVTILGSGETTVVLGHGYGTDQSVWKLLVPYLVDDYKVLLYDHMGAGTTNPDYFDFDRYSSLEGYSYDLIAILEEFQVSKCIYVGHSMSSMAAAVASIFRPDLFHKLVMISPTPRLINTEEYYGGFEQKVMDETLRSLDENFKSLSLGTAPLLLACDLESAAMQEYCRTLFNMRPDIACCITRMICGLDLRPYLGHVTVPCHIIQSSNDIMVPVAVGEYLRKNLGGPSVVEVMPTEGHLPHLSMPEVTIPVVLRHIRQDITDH
row,Structure (SMILES),Kd
1,O=C(c1cccs1)N1CCN(CC2CC=CCC2)CC1 (stereo not drawn) [2b],10.5 ± 0.67 µM
2,COc1cc(C(=O)N2CCN(CC3CC4C=CC3C4)CC2)cc(OC)c1OC (stereo not drawn) [2c],6.66 ± 0.2 µM
3,O=C(C(c1ccccc1)c1ccccc1)N1CCN(CC2CC3C=CC2C3)CC1 (stereo not drawn) [2d],5.22 ± 0.66 µM
4,O=C(c1ccc([N+](=O)[O-])cc1)N1CCN(CC2CC3C=CC2C3)CC1 (stereo not drawn) [2e],8.77 ± 0.11 µM
5,Cc1cccc(OCC(=O)N2CCN(CC3CC4C=CC3C4)CC2)c1 (stereo not drawn) [2f],11.2 ± 0.16 µM
6,Cc1cc(Br)ccc1OCC(=O)N1CCN(CC2CC3C=CC2C3)CC1 (stereo not drawn) [3f],0.18 µM
7,O=C(COc1c(F)c(F)c(F)c(F)c1F)N1CCN(CC2CC3C=CC2C3)CC1 (stereo not drawn) [3g],0.47 µM
8,CC1=CC(OC(=O)N2CCN(C(=O)COc3c(F)c(F)c(F)c(F)c3F)CC2)OC1=O (stereo not drawn) [4b],2.21 ± 0.42 µM

# Same assay, conditions: Supplementary Table 7; binding affinities between ShHTL7 and agonists by SPR; read-out: KD/μM
row,Structure (SMILES),Kd
1,CC1=CC(OC(=O)N2CCN(CC3CC4C=CC3C4)CC2)OC1=O (stereo not drawn) [4c],13.9 ± 2.6 µM
2,CC1=CC(OC(=O)N2CCN(C(=O)COc3ccc(F)cc3C)CC2)OC1=O (stereo not drawn) [4d],0.82 ± 0.26 µM
3,CC1=CC(OC(=O)N2CCN(C(=O)COc3ccc(Cl)cc3C)CC2)OC1=O (stereo not drawn) [4e],6.33 ± 3.1 µM
4,CC1=CC(OC(=O)N2CCN(C(=O)C(F)(F)Oc3ccc(Br)cc3C)CC2)OC1=O (stereo not drawn) [4f],1.96 ± 0.29 µM
5,CCCCOc1ccc(S(=O)(=O)N2CCN(C(=O)OC3C=C(C)C(=O)N3C)CC2)cc1 (stereo not drawn) [4j],18.1 ± 6.29 µM
6,"CCCCOc1ccc(S(=O)(=O)N2CCN(C(=O)OC3C=C(C)C(=O)O3)CC2)cc1 (stereo not drawn) [SPL7, reference compound]",4.81 ± 0.02 µM

# Same assay, conditions: recombinant ShHTL7 immobilized on CM5 chip, 25 °C; read-out: KD (SPR)
row,Structure (SMILES),Kd
1,O=C(c1ccco1)N1CCN(CC2CC3C=CC2C3)CC1 (stereo not drawn) [2a],12.8 ± 0.6 µM
2,Cc1cc(F)ccc1OCC(=O)N1CCN(CC2CC3C=CC2C3)CC1 (stereo not drawn) [3d],1.86 µM

# Biological target: T1, ShHTL7
# Assay: Competitive inhibition of ShHTL7 with Yoshimulactone Green (YLG) as substrate
# Type: biochemical
# Conditions: IC50 (Supplementary Table 1), YLG used as the substrate; means ± SD, n = 3
# Experimental: Based on the structural feature of the lead compound 2h, we selected three regions to perform further modification (Supplementary Fig. 6), to try to further improve bioactivity. Insertion of a carbonyl group between the bicyclo[2.2.1]hept-5-en-2-yl group and the piperazine ring was detrimental to binding affinity (Supplementary Fig. 6, region A). Removal of an oxygen atom in region B was found unfavorable to binding affinity as well. Therefore, we focused on modifying the benzene ring (region C) for 2h. A series of compounds with different groups at region C was synthesized (Supplementary Scheme 1). […] As SPR just measures the binding ability, another independent assay by using Yoshimulactone Green (YLG) as the fluorescent substrate was performed to determine the half-maximal inhibitory concentration (IC50) of these compounds against ShHTL7[22].
# The excitation and emission wavelengths of YLG are 480 and 520 nm, respectively. We used a fluorescence spectrophotometer (CARY Eclipse) to detect the fluorescence intensity change of YLG during the enzymatic hydrolysis assay process. All the testing compounds and YLG were dissolved in DMSO and prepared as stock solutions just before use. […] The changes of fluorescence at 520 nm of each well were recorded every 1 min for 30 min. Using the reaction mixture without adding enzyme and tested compounds as the background control. After subtracting the background hydrolysis, a linear fluorescence increase in 8 min was used for further inspection. The IC50 values were determined via fitting relative inhibition percentages with the varying concentrations of compounds in Microsoft Excel.
row,Structure (SMILES),IC50
1,Cc1cccc(OCC(=O)N2CCN(CC3CC4C=CC3C4)CC2)c1 (stereo not drawn) [2f],10.7 ± 0.96 µM
2,Cc1cc(Br)ccc1OCC(=O)N1CCN(CC2CC3C=CC2C3)CC1 (stereo not drawn) [3f],7.45 ± 1.03 µM
3,O=C(COc1c(F)c(F)c(F)c(F)c1F)N1CCN(CC2CC3C=CC2C3)CC1 (stereo not drawn) [3g],0.23 ± 0.03 µM

# Same assay, conditions: IC50, competitive ShHTL7 inhibition (YLG), source data average, wild-type ShHTL7; average of 3; source data of Fig. 2a,b, Supplementary Figs. 8a, 9a, 20b
row,Structure (SMILES),IC50
1,Cc1cc(Br)ccc1OCC(=O)N1CCN(CC2CC3C=CC2C3)CC1 (stereo not drawn) [3f],6.11 µM
2,O=C(COc1c(F)c(F)c(F)c(F)c1F)N1CCN(CC2CC3C=CC2C3)CC1 (stereo not drawn) [3g],2.08 µM

# Same assay, conditions: YLG as substrate; text and Fig. 2; read-out: IC50, competitive ShHTL7 inhibition (YLG assay)
row,Structure (SMILES),IC50
1,CC1=CC(OC(=O)N2CCN(C(=O)COc3c(F)c(F)c(F)c(F)c3F)CC2)OC1=O (stereo not drawn) [4b],3.03 ± 0.58 µM
2,CC1=CC(OC(=O)N2CCN(CC3CC4C=CC3C4)CC2)OC1=O (stereo not drawn) [4c],4.56 ± 0.78 µM

# Same assay, conditions: YLG used as the substrate; means ± SD, n = 3; read-out: IC50 (Supplementary Table 1)
row,Structure (SMILES),IC50
1,Cc1cc(F)ccc1OCC(=O)N1CCN(CC2CC3C=CC2C3)CC1 (stereo not drawn) [3d],10.7 ± 2.93 µM

# Same assay, conditions: wild-type ShHTL7; average of 3; source data of Fig. 2a,b, Supplementary Figs. 8a, 9a, 20b; read-out: IC50, competitive ShHTL7 inhibition (YLG), source data average
row,Structure (SMILES),IC50
1,CC1=CC(OC(=O)N2CCN(C(=O)COc3c(F)c(F)c(F)c(F)c3F)CC2)OC1=O (stereo not drawn) [4b],3.03 µM
2,CC1=CC(OC(=O)N2CCN(CC3CC4C=CC3C4)CC2)OC1=O (stereo not drawn) [4c],4.56 µM
3,CC1=CC(OC(=O)N2CCN(C(=O)COc3ccc(F)cc3C)CC2)OC1=O (stereo not drawn) [4d],3.78 µM
4,CC1=CC(OC(=O)N2CCN(C(=O)COc3ccc(Cl)cc3C)CC2)OC1=O (stereo not drawn) [4e],2.35 µM
5,CC1=CC(OC(=O)N2CCN(C(=O)C(F)(F)Oc3ccc(Br)cc3C)CC2)OC1=O (stereo not drawn) [4f],4.25 µM
6,CCCCOc1ccc(S(=O)(=O)N2CCN(C(=O)OC3C=C(C)C(=O)N3C)CC2)cc1 (stereo not drawn) [4j],105 µM
7,"CCCCOc1ccc(S(=O)(=O)N2CCN(C(=O)OC3C=C(C)C(=O)O3)CC2)cc1 (stereo not drawn) [SPL7, reference compound]",4.31 µM

# System: P. aegyptiaca seeds
# Assay: P. aegyptiaca seed germination assay
# Type: in vivo, Phelipanche aegyptiaca
# Set-up: P. aegyptiaca germination EC50 values, source data average: unit not given here; P. aegyptiaca seed germination activity, source data average: unit of the concentration uncertain
# Conditions: 10 μM; Fig. 1d source data, average of 3
# Experimental: P. aegyptiaca seeds were harvested from Xinjiang province, China in 2017. The seeds were surface sterilized using 1% NaClO solution for 2 min and then washed with distilled water six times. For seed germination assay, about 20 pieces of glass fiber-filter paper discs (15 mm diameter, Whatman GF/B) were placed separately on two layers of filter papers (9 cm diameter, Whatman) in a Petri dish. Five milliliters of distilled water was added to each Petri dish to wet the papers. Approximately 40–90 sterilized seeds were spread onto each glass fiber-filter paper disc. After the seeds were conditioned in the dark at 25 °C for 4 days[48], glass fiber-filter paper discs were blotted dry on filter papers (9 cm) and transferred to the wells of 24-well cell culture plates. The testing compounds were dissolved in acetone and diluted with H2O (VH2O/Vacetone = 999/1) just before use[49]. rac-GR24 and 1‰ acetone solution were used as positive and negative controls, respectively. One hundred microliters of the test solution was added to each well of the plates, and all treatments were performed in three biological repeats. The plates were sealed and incubated in the dark at 25 °C for a week. The experiments were performed at least three times. The germinated seeds were observed by using an electronic magnifier at ×20 magnification.
row,Structure (SMILES),"germination of P. aegyptiaca seeds, source data average"
1,Cc1cccc(OCC(=O)N2CCN(CC3CC4C=CC3C4)CC2)c1 (stereo not drawn) [2f],18.7364%

# Same assay, conditions: 0.1 (unit uncertain) as printed; Supplementary Fig. 9b
row,Structure (SMILES),"P. aegyptiaca seed germination activity, source data average"
1,CCCCOc1ccc(S(=O)(=O)N2CCN(C(=O)OC3C=C(C)C(=O)N3C)CC2)cc1 (stereo not drawn) [4j],4.315%

# Same assay, conditions: 1 (unit uncertain) as printed; Supplementary Fig. 9b
row,Structure (SMILES),"P. aegyptiaca seed germination activity, source data average"
1,CCCCOc1ccc(S(=O)(=O)N2CCN(C(=O)OC3C=C(C)C(=O)N3C)CC2)cc1 (stereo not drawn) [4j],14.0733%

# Same assay, conditions: 10 (unit uncertain) as printed; Supplementary Fig. 9b
row,Structure (SMILES),"P. aegyptiaca seed germination activity, source data average"
1,CCCCOc1ccc(S(=O)(=O)N2CCN(C(=O)OC3C=C(C)C(=O)N3C)CC2)cc1 (stereo not drawn) [4j],45.7326%

# Same assay, conditions: Phelipanche aegyptiaca; read-out: EC50, P. aegyptiaca seed germination
row,Structure (SMILES),EC50
1,CC1=CC(OC(=O)N2CCN(C(=O)COc3c(F)c(F)c(F)c(F)c3F)CC2)OC1=O (stereo not drawn) [4b],~0.0552 µM

# Same assay, conditions: Phelipanche aegyptiaca; source data of Fig. 2c and Supplementary Fig. 8b; average of 3; read-out: P. aegyptiaca germination EC50 values, source data average (converted)
row,Structure (SMILES),EC50
1,CC1=CC(OC(=O)N2CCN(C(=O)COc3c(F)c(F)c(F)c(F)c3F)CC2)OC1=O (stereo not drawn) [4b],0.0482 µM

# Same assay, conditions: Supplementary Table 1; compounds tested at 10 μM; means ± SD, n = 3
row,Structure (SMILES),P. aegyptiaca germination(%)
1,Cc1cccc(OCC(=O)N2CCN(CC3CC4C=CC3C4)CC2)c1 (stereo not drawn) [2f],20.5%
2,Cc1cc(F)ccc1OCC(=O)N1CCN(CC2CC3C=CC2C3)CC1 (stereo not drawn) [3d],23.1%
3,Cc1cc(Br)ccc1OCC(=O)N1CCN(CC2CC3C=CC2C3)CC1 (stereo not drawn) [3f],8.3%
4,O=C(COc1c(F)c(F)c(F)c(F)c1F)N1CCN(CC2CC3C=CC2C3)CC1 (stereo not drawn) [3g],5.7%

# Same assay, conditions: in vivo; read-out: EC50, P. aegyptiaca seed germination
row,Structure (SMILES),EC50
1,CC1=CC(OC(=O)N2CCN(CC3CC4C=CC3C4)CC2)OC1=O (stereo not drawn) [4c],0.00226 µM

# Same assay, conditions: source data of Fig. 2c and Supplementary Fig. 8b; average of 3
row,Structure (SMILES),"P. aegyptiaca germination EC50 values, source data average"
1,CC1=CC(OC(=O)N2CCN(CC3CC4C=CC3C4)CC2)OC1=O (stereo not drawn) [4c],8.757
2,CC1=CC(OC(=O)N2CCN(C(=O)COc3ccc(F)cc3C)CC2)OC1=O (stereo not drawn) [4d],8.181
3,CC1=CC(OC(=O)N2CCN(C(=O)COc3ccc(Cl)cc3C)CC2)OC1=O (stereo not drawn) [4e],8.242
4,CC1=CC(OC(=O)N2CCN(C(=O)C(F)(F)Oc3ccc(Br)cc3C)CC2)OC1=O (stereo not drawn) [4f],6.406
5,"CCCCOc1ccc(S(=O)(=O)N2CCN(C(=O)OC3C=C(C)C(=O)O3)CC2)cc1 (stereo not drawn) [SPL7, reference compound]",7.443

# Biological target: T1, ShHTL7
# Assay: ShHTL7-hydrolysis reaction analysis (HPLC)
# Type: biochemical
# Conditions: authors' response to reviewer
# Experimental: Compounds 4a, (R)- and (S)-4a, 4g-i, and rac-GR24 were dissolved in DMSO and prepared as stock solution ([…]) just before use. A 200 μL of the reaction solution consisting of PBS buffer (pH 7.3), 10 μM samples, and 10 μg recombinant ShHTL7 or its mutants was incubated at 30 °C for 30 min; with the reaction solution (200 μL) containing PBS buffer (pH 7.3) and 10 μM samples as the blank control[40],[52]. Subsequently, the reaction was terminated by adding 200 μL of methanol, and then the reaction mixture was shaken for 10 s and centrifuged at 5310 × g for 60 s. The supernatant was filtered and the remaining amount of samples was analyzed by HPLC. The relative percentages of hydrolysis were obtained by using the amount of compounds in blank control as reference.
# Supplementary Fig. 11. Hydrolysis of 4a, (R)-4a, (S)-4a, 4g-i, and rac-GR24 by ShHTL7 at 30 °C for 30 min. The remaining amounts of compounds in recombinant ShHTL7 protein and buffer solution were determined by HPLC analysis. The relative percentages of hydrolysis were calculated by using the amount of compounds in the buffer as reference. The error bar indicates SD (n = 3 biologically independent experiments).
# (1 picture or pasted object on this page, not shown here)
row,Structure (SMILES),hydrolysis by ShHTL7
1,O=C(c1ccc([N+](=O)[O-])cc1)N1CCN(CC2CC3C=CC2C3)CC1 (stereo not drawn) [2e],could not be hydrolyzed by ShHTL7
